Measurements as given in article PMC4872165, “Targeting human respiratory syncytial virus transcription anti-termination factor M2-1 to inhibit in vivo viral replication” (Scientific Reports, 2016).

Molecular target: T1, hRSV RNA-dependent RNA polymerase (RdRp) complex with M2-1 (L, P, N, M2-1 minigenome) (Human respiratory syncytial virus A2, UniProt P04545)
T1 construct: pN, pP, pL and pM2-1 plasmids (T7 promoter) in BSR-T7/5 (BHK-21) cells with pM/Luc minigenome; strain printed for the virus only, not for the plasmids; M2-1 tetrameric; with RNA-directed RNA polymerase L; Phosphoprotein; Nucleoprotein
T1 sequence (P04545 whole entry, looked up, one chain of several): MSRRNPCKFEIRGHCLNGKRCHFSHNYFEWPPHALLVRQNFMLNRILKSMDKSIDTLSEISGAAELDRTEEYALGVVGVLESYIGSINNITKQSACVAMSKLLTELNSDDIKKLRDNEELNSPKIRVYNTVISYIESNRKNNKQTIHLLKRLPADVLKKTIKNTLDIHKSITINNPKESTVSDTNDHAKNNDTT
Experiment: hRSV minigenome luciferase reporter assay in transfected BSR-T7/[…] cells
Format: cell-based

CC1=C2C[C@H]3[C@@H](CC=C4C[C@@H](O)CC[C@@]43C)[C@@H]2CC[C@]12O[C@@H]1C[C@H](C)CN[C@H]1[C@H]2C [cyclopamine]
IC50: 380 nM
